Experimental data from patent US20260223849A1, “FUNGICIDAL COMBINATION” (UPL MAURITIUS LIMITED, priority 2023, published 2026).

Test system: Zymoseptoria tritici (Septoria tritici)
Assay: Efficacy against Zymoseptoria tritici (SEPTTR) on wheat, two applications (stages A and B)
Type: in vivo
Details: prothioconazole 520 mL/ha (130 g A/ha), fluxapyroxad 1424 mL/ha (89 g A/ha)
Description: The following formula was used to calculate the expected activity of mixtures containing active ingredients, A and B:
[formula] • where A=observed efficacy of active ingredient A at the same concentration as used in the mixture. • B=observed efficacy of active ingredient B at the same concentration as used in the mixture.
In the Colby method, the expected (or predicted) response of a combination of fungicides is calculated by taking the product of the observed response for each individual component of the combination when applied alone divided by 100 and subtracting this value from the sum of the observed response for each component when applied alone. An unexpected enhancement in efficacy of the combination is then determined by comparing the observed response of the combination to the expected (or predicted) response as calculated from the observed response of each individual component alone. If the observed response of the combination is greater than the expected (or predicted) response, or stated conversely, if the difference between the observed and expected response is greater than zero, then the combination is said to be synergistic or unexpectedly effective.
Efficacy of the combination of prothioconazole and fluxapyroxad was determined against Zymoseptoria tritici (Septoria tritici) in wheat crop. The actives prothioconazole and fluxapyroxad were tank mixed and applied as per the table below. Prothioconazole and fluxapyroxad were emulsifiable concentrate formulations with formulation concentrations of 250 g/L and 62.5 g/L, respectively. The applications were made twice at stages ‘A and ‘B’. Stage A was the time at which the first node was at least 1 cm above tillering node (Feekes 6.0=First node visible). Stage ‘B’ was the Flag leaf stage, wherein the flag leaf fully unrolled and ligule was visible (Feekes 9.0=Flag leaf). Applications were made at stage B which was 18 days after application A. The observations were made at 19 DA-A (19 days after application-A) as observed in table 1 (b) and at 23 DA-B (23 days after application B) as observed in Table 1 (c).

[1] = 19 DA-A (19 days after application A)
[2] = 23 DA-B (23 days after application B)

SMILES | % Observed Control of Septoria tritici [1] [%] | % Observed Control of Septoria tritici [2] [%]
Cn1cc(C(=O)Nc2ccccc2-c2cc(F)c(F)c(F)c2)c(C(F)F)n1 [Fluxapyroxad, 3-(difluoromethyl)-1-methyl-N-(3′,4′,5′-trifluorobiphenyl-2-yl) pyrazole-4-carboxamide] | 25.6 | 37.8
OC(Cc1ccccc1Cl)(Cn1[nH]cnc1=S)C1(Cl)CC1 (stereo not shown) [Prothioconazole, 2-[2-(1-chlorocyclopropyl)-3-(2-chlorophenyl)-2-hydroxypropyl]-1,2-dihydro-3H-1,2,4-triazole-3-thione] | 23.7 | 20.0
